Data reported in ChEMBL document CHEMBL3046863, “Chemical composition and antifungal activity of essential oil of Chrysactinia mexicana gray” (J Agric Food Chem, 2005).
Calls of active or inactive are those of the source. No cut-off for these calls is given here.

How the values were obtained:
Type in all cases: functional, organism-based
[1] = system: Aspergillus flavus; test: Antifungal activity against Aspergillus flavus assessed as inhibition of mycelial growth in dextrose sabouraud broth and Czapek agar at 0.2 mg/ml at 28 +/- 1 degC for 72 hr by dilution technique
[2] = system: Aspergillus flavus; test: Antifungal activity against Aspergillus flavus assessed as inhibition of mycelial growth in dextrose sabouraud broth and Czapek agar at 0.4 mg/ml at 28 +/- 1 degC for 72 hr by dilution technique
[3] = system: Aspergillus flavus; test: Antifungal activity against Aspergillus flavus assessed as inhibition of mycelial growth in dextrose sabouraud broth and Czapek agar at 0.1 mg/ml at 28 +/- 1 degC for 72 hr by dilution technique
[4] = system: Aspergillus flavus; test: Antifungal activity against Aspergillus flavus assessed as inhibition of mycelial growth in dextrose sabouraud broth and Czapek agar at 0.6 mg/ml at 28 +/- 1 degC for 72 hr by dilution technique
[5] = system: Aspergillus flavus; test: Antifungal activity against Aspergillus flavus assessed as inhibition of mycelial growth in dextrose sabouraud broth and Czapek agar at 0.5 mg/ml at 28 +/- 1 degC for 72 hr by dilution technique
[6] = system: Aspergillus flavus; test: Antifungal activity against Aspergillus flavus assessed as inhibition of mycelial growth in dextrose sabouraud broth and Czapek agar at 0.3 mg/ml at 28 +/- 1 degC for 72 hr by dilution technique
[7] = system: Sclerotinia sclerotiorum; test: Antifungal activity against Sclerotinia sclerotiorum assessed as inhibition of mycelial growth in dextrose sabouraud broth and Czapek agar at 28 +/- 1 degC for 72 hr by dilution technique

SMILES	Activity [1]	Activity [2]	Activity [3]	Activity [4]	Activity [5]	Activity [6]	EC50 [7]
CC1=CC(=O)C(C(C)C)CC1 (centres undefined)	inactive	inactive	inactive	Active	inactive	inactive	
CC12CCC(CC1)C(C)(C)O2	inactive	inactive	inactive	inactive	inactive	inactive	
C=CC(C)(CCC=C(C)C)OC(C)=O (centres undefined) [LINALYL ACETATE]	inactive	inactive	inactive	inactive	inactive	inactive	569.62 uL/L
